ChEMBL document CHEMBL3045647, “Synthesis, anti-microbial evaluation, and molecular modeling of new pyrazolo[3,4-d]pyrimidine derivatives” (2012)

What was measured:
Format in all cases: functional
Staphylococcus aureus [1] = assay: Antibacterial activity against Staphylococcus aureus isolated from minced cow meet at 100 ug/ml after 24 hr by agar well diffusion method; conditions: read-out: IZ
Listeria monocytogenes [2] = assay: Antibacterial activity against Listeria monocytogenes isolated from mastitic cow milk at 100 ug/ml after 24 hr by agar well diffusion method; conditions: read-out: IZ
Candida albicans [3] = assay: Antifungal activity against Candida albicans at 100 ug/ml after 48 to 72 hr by agar well diffusion method; conditions: read-out: IZ
Bacillus cereus [4] = assay: Antibacterial activity against Bacillus cereus at 100 ug/ml after 24 hr by agar well diffusion method; conditions: read-out: IZ
Escherichia coli [5] = assay: Antibacterial activity against Escherichia coli O157:H7 isolated from poultry at 100 ug/ml after 24 hr by agar well diffusion method; conditions: O157:H7, 24 h, read-out: IZ
Pseudomonas aeruginosa [6] = assay: Antibacterial activity against Pseudomonas aeruginosa minced cow meet at 100 ug/ml after 24 hr by agar well diffusion method; conditions: read-out: IZ
Aspergillus flavus [7] = assay: Antifungal activity against Aspergillus flavus at 100 ug/ml after 48 to 72 hr by agar well diffusion method; conditions: read-out: IZ
Salmonella typhimurium [8] = assay: Antibacterial activity against Salmonella enterica subsp. enterica serovar Typhimurium isolated from mastitic cow milk at 100 ug/ml after 24 hr by agar well diffusion method; conditions: read-out: IZ
Aspergillus flavus [9] = assay: Antifungal activity against Aspergillus flavus at 25 ug/ml after 48 to 72 hr by agar well diffusion method; conditions: read-out: IZ
Candida albicans [10] = assay: Antifungal activity against Candida albicans at 25 ug/ml after 48 to 72 hr by agar well diffusion method; conditions: read-out: IZ
Bacillus cereus [11] = assay: Antibacterial activity against Bacillus cereus at 10 ug/ml after 24 hr by agar well diffusion method; conditions: read-out: IZ
Escherichia coli [12] = assay: Antibacterial activity against Escherichia coli O157:H7 isolated from poultry at 10 ug/ml after 24 hr by agar well diffusion method; conditions: O157:H7, 24 h, read-out: IZ
Pseudomonas aeruginosa [13] = assay: Antibacterial activity against Pseudomonas aeruginosa minced cow meet at 10 ug/ml after 24 hr by agar well diffusion method; conditions: read-out: IZ
Staphylococcus aureus [14] = assay: Antibacterial activity against Staphylococcus aureus minced cow meet at 10 ug/ml after 24 hr by agar well diffusion method; conditions: read-out: IZ
Salmonella typhimurium [15] = assay: Antibacterial activity against Salmonella enterica subsp. enterica serovar Typhimurium isolated from mastitic cow milk at 10 ug/ml after 24 hr by agar well diffusion method; conditions: read-out: IZ
Listeria monocytogenes [16] = assay: Antibacterial activity against Listeria monocytogenes isolated from mastitic cow milk at 10 ug/ml after 24 hr by agar well diffusion method; conditions: read-out: IZ

SMILES	zone of inhibition at 100 µg/mL (Staphylococcus aureus [1]) [mm]	zone of inhibition at 100 µg/mL (Listeria monocytogenes [2]) [mm]	zone of inhibition at 100 µg/mL (Candida albicans [3]) [mm]	zone of inhibition at 100 µg/mL (Bacillus cereus [4]) [mm]	zone of inhibition at 100 µg/mL (Escherichia coli [5]) [mm]	zone of inhibition at 100 µg/mL (Pseudomonas aeruginosa [6]) [mm]	zone of inhibition at 100 µg/mL (Aspergillus flavus [7]) [mm]	zone of inhibition at 100 µg/mL (Salmonella typhimurium [8]) [mm]	zone of inhibition at 25 µg/mL (Aspergillus flavus [9]) [mm]	zone of inhibition at 25 µg/mL (Candida albicans [10]) [mm]	zone of inhibition at 10 µg/mL (Bacillus cereus [11]) [mm]	zone of inhibition at 10 µg/mL (Escherichia coli [12]) [mm]	zone of inhibition at 10 µg/mL (Pseudomonas aeruginosa [13]) [mm]	zone of inhibition at 10 µg/mL (Staphylococcus aureus [14]) [mm]	zone of inhibition at 10 µg/mL (Salmonella typhimurium [15]) [mm]	zone of inhibition at 10 µg/mL (Listeria monocytogenes [16]) [mm]
Cc1nn(-c2ccccc2)c2nc(-n3[nH]c(=O)c(C#N)c3-c3ccc(Cl)cc3)nc(-c3ccc(Cl)cc3)c12	0	29	24	24	0	14	12	9	–	–	–	–	–	–	–	–
Cc1nn(-c2ccccc2)c2nc(-n3[nH]c(=O)c(C#N)c3-c3cccs3)nc(-c3ccc(Cl)cc3)c12	14	32	20	9	0	14	12	10	–	–	–	–	–	–	–	–
COc1ccc(C(=O)CSc2nc(-c3ccc(Cl)cc3)c3c(C)nn(-c4ccccc4)c3n2)cc1	16	14	26	18	16	18	12	13	–	–	–	–	–	–	–	–
Cc1nn(-c2ccccc2)c2nc(NN)nc(-c3ccc(Cl)cc3)c12	16	16	16	26	10	16	0	13	–	–	–	–	–	–	–	–
Cc1nn(-c2ccccc2)c2c1c(-c1ccc(Cl)cc1)nc1nncn12	14	20	18	22	10	12	0	13	–	–	–	–	–	–	–	–
Cc1nn(-c2ccccc2)c2nc(-n3nc(N)c(C#N)c3-c3ccc(Cl)cc3)nc(-c3ccc(Cl)cc3)c12	12	18	9	12	0	9	0	9	–	–	–	–	–	–	–	–
Cc1nn(-c2ccccc2)c2c1C(c1ccc(Cl)cc1)n1c(s/c(=C\c3ccc(C#N)cc3)c1=O)=N2 (stereo not drawn)	28	20	9	22	18	18	8	15	–	–	–	–	–	–	–	–
Cc1nn(-c2ccccc2)c2nc(SCC(=O)Cl)nc(-c3ccc(Cl)cc3)c12	14	29	8	10	9	22	9	11	–	–	–	–	–	–	–	–
Cc1nn(-c2ccccc2)c2nc(S)nc(-c3ccc(Cl)cc3)c12	18	24	29	22	0	24	0	12	–	–	–	–	–	–	–	–
Cc1nn(-c2ccccc2)c2nc(S)nc(-c3cccs3)c12	14	16	10	18	14	16	10	14	–	–	–	–	–	–	–	–
OC(Cn1cncn1)(Cn1cncn1)c1ccc(F)cc1F [FLUCONAZOLE]	–	–	–	–	–	–	–	–	16	17	–	–	–	–	–	–
NC[C@H]1O[C@H](O[C@H]2[C@H](O)[C@@H](O[C@H]3O[C@H](CO)[C@@H](O)[C@H](N)[C@H]3O)[C@H](N)C[C@@H]2N)[C@H](N)C[C@@H]1O [TOBRAMYCIN]	–	–	–	–	–	–	–	–	–	–	19	20	18	19	18	20
